Test results from patent US20230158020A1, “Method for treating RNA viral infections, including COVID-19 (SARS-CoV-2)” (priority 2020, published 2023).
Where two headings read alike, the source gives them in different places.

How the values were obtained:
[1] = system: COVID-19; conditions: patients with confirmed COVID-19; FVP orally 1600 mg twice a day on day 1, 600 mg twice a day days 2-14, plus interferon-α aerosol 5 million units twice a day; control lopinavir/ritanovir 400 mg/100 mg twice a day; cited from earlier work
[2] = system: SARS-CoV-2; format: in vivo

Q: With `NC(=O)c1nc(F)c[nH]c1=O` [FVP, Favipiravir] as the molecule, how does the viral clearance [1] read?
A: 4 days

Q: What about the virus elimination rate ([2]; patients with FVP dose <43 mg/kg on day 1) of the same molecule?
A: 44%

Q: And the virus elimination rate ([2]; patients with FVP dose ≥43 mg/kg on day 1)?
A: 79%
